For assay [1], the target named is T1, Leukotriene B4 receptor 2 (Homo sapiens, UniProt Q9NPC1).
T1 sequence (Q9NPC1 whole entry): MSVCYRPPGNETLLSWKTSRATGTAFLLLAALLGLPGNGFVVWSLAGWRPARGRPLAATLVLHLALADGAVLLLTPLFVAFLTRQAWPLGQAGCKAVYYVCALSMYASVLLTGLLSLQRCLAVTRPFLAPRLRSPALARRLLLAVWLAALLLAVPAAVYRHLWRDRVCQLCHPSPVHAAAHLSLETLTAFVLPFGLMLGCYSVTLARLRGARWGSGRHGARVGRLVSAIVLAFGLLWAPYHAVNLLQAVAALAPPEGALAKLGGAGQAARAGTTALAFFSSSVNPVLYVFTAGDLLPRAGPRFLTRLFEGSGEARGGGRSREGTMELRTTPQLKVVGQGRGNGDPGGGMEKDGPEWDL

The target of assay [2] is Leukotriene B4 receptor 1 (Homo sapiens, UniProt Q15722).
Leukotriene B4 receptor 1, sequence (Q15722 whole entry): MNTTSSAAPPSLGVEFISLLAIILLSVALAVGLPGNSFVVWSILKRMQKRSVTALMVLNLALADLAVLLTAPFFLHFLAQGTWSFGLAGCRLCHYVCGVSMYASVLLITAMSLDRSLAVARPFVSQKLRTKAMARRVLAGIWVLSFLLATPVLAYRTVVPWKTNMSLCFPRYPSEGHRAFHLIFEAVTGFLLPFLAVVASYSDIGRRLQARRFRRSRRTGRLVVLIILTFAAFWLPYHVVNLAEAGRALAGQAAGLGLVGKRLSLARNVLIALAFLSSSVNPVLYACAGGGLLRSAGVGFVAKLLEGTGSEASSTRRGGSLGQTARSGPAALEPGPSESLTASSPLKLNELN

Several values for one entry are separate records, joined by “and”; a condition that tells them apart may be missing. Equal values may be shown once.

On to `CCCCC[C@@H](O)/C=C/C=C\C/C=C\C/C=C\CCCC(=O)O`, for which the Ki in assay [1] was 173 nM; in assay [2] it was over 18 µM.
For `CCCCC/C=C\C\C=C/C=C/C=C/[C@@H](SC[C@H](N)C(=O)NCC(=O)O)[C@@H](O)CCCC(=O)O` [5S-hydroxy-6R-(S-cysteinylglycinyl)-7E,9E,11E,14Z-eicosatetraenoic acid] the same measures were over 10000 nM and 4 µM.
On the same counts, the results for `CCCCC/C=C\C[C@H](O)/C=C/c1cccc(C[C@H](O)CCCCO)n1` [(5R)-6-[6-[(1E,3S,5Z)-3-hydroxyundeca-1,5-dienyl]pyridin-2-yl]hexane-1,5-diol] are 5430 nM and 0.025 µM.
`CCCCC/C=C\C\C=C/C=C/C=C/[C@@H](SC[C@H](N)C(=O)O)[C@@H](O)CCCC(=O)O` [(5S-(5R*,6S*(S*),7E,9E,11Z,14Z))-6-((2-Amino-2-carboxyethyl)thio)-5-hydroxy-7,9,11,14-eicosatetraenoic acid]: the Ki worked out at 6000 nM in assay [1] and 2.37 µM in assay [2].
On the same counts, the results for `CCCCCC=CCC=CC=CC=CC(SCC(NC(=O)CCC(N)C(=O)O)C(=O)NCC(=O)O)C(O)CCCC(=O)O` (centres undefined) [CAS_5283121] are over 9000 nM and over 1.9 µM.
Take `O=C(O)CCCC=CCC=CCC=CCC=CCCCCCO` [CAS_5283157]: the values for the Ki in assay [1] and in assay [2] were over 1000 nM and over 10 µM, respectively.
Consider `CCCCC/C=C\C/C=C\CC=CC=CC(=O)CCCC(=O)O` [ETE-5-Oxo], for which the Ki in assay [1] was over 1000 nM; in assay [2], over 1 µM.
Consider `CCCCC/C=C\C/C=C\C/C=C\C=C\C(O)CCCC(=O)O` [HETE-5(S)], for which the Ki was 1000 nM and 3000 nM in assay [1]; 1 µM and > 10 µM in assay [2].
On to `CCCCCCCCC=CC=CC=CC1OC1CCCC(=O)OC` (centres undefined) [LTA3-ME], for which the Ki in assay [1] is over 10000 nM; in assay [2], 5 µM.
The compound `CC/C=C/CC=CCC=CC=CC=CC1OC1CCCC(=O)OC` (centres undefined) [LTA5-ME] came in with a Ki in assay [2] of over 10 µM.
As for `CCCCC/C=C\C[C@@H](O)/C=C/C=C/C=C\[C@@H](O)CCCC(=O)NCCCN` [LTB4-3-aminopropylamide], the Ki in assay [1] turned out to be 1230 nM; in assay [2], 0.0051 µM.
For `O=C(O)CCC[C@H](O)\C=C/C=C/C=C/[C@H](O)C/C=C\CCCCCO` [LTB4-20-hydroxy], the inhibition constant (Ki) was 41 nM in assay [1] and 0.00054 µM in assay [2].
As for `CCCCCCCCC=CC=CC=CC(SCC(NC(=O)CCC(N)C(=O)O)C(=O)NCC(=O)O)C(O)CCCC(=O)O` (centres undefined) [LTC3], the Ki is over 4000 nM in assay [1] and over 14 µM in assay [2].
Take `CC/C=C/C=C/CCC=CC=CC=CC(SCC(NC(=O)CCC(N)C(=O)O)C(=O)NCC(=O)O)C(O)CCCC(=O)O` (centres undefined) [LTC5]: the Ki in assay [1] was 3000 nM; in assay [2] it was over 10 µM.
On to `CCCCCCCCC=CC=CC=CC(SCC(N)C(=O)NCC(=O)O)C(O)CCCC(=O)O` (centres undefined) [LTD3], for which the Ki was 1000 nM in assay [1] and over 10 µM in assay [2].
With `CC/C=C/CC=CCC=CC=CC=CC(SCC(N)C(=O)NCC(=O)O)C(O)CCCC(=O)O` (centres undefined) [LTD5], the Ki in assay [2] was over 10 µM.
Regarding `CCCCCCCCC=CC=CC=CC(SCC(N)C(=O)O)C(O)CCCC(=O)O` (centres undefined) [LTE3], the results for the Ki in assay [1] and in assay [2] were 4000 nM and over 10 µM, respectively.
On to `CCCCCC=CCC=CCC=CCC#CCCCC(=O)O` [NSC_1777], for which, in assay [1], the affinity, expressed as Ki, was 1000 nM. That is a single-digit micromolar value.
Take `CCCCCC=CCC=CC=CC=CC1OC1CCCC(=O)OC` (centres undefined) [NSC_126534]: the Ki in assay [1] is over 10000 nM; in assay [2] it was over 10 µM.
As to `CCCCCC(O)C=CC=CC=CC=CC(O)C(O)CCCC(=O)O` (centres undefined) [NSC_5280914], the Ki is 1400 nM in assay [1] and 1.44 µM in assay [2].
As for `CCCCCC=CCC=CC=CC=CC(SCC(NC(=O)CCC(N)C(=O)O)C(=O)O)C(O)CCCC(=O)O` (centres undefined) [NSC_5283124], the inhibition constant Ki was found to be 6000 nM in assay [1] and 5.7 µM in assay [2].
On to `CCC=CCC=CCC(O)C=CC=CC=CC(O)CCCC(=O)O` (centres undefined) [NSC_5283125], for which the Ki in assay [1] was 9.4 nM; in assay [2], 0.0037 µM.
On to `CCCCCCC=CC(=O)C=CC=CCC=CCCCC(=O)O` [NSC_5283162], for which the Ki is 155 nM in assay [1] and over 1 µM in assay [2].
For the compound `CCCCCC=CCC=CC=CC(O)CC=CCCCC(=O)O` (centres undefined) [NSC_5283163], the results for the Ki in assay [1] and in assay [2] were over 1000 nM and over 30 µM, respectively.
For `CC(C)(O)c1ccccc1CCC(S)c1cccc(C=Cc2ccc3ccc(Cl)cc3n2)c1` (centres undefined) [NSC_5311297], the Ki in assay [1] is over 10000 nM; in assay [2], over 10 µM.
For the compound `COc1cc(C(=O)NS(=O)(=O)c2ccccc2C)ccc1Cc1cn(C)c2ccc(NC(=O)OC3CCCC3)cc12` [cyclopentyl 3-(2-methoxy-4-((o-tolylsulfonyl)carbamoyl)benzyl)-1-methylindole-5-carbamate], the Ki was over 10000 nM in assay [1] and 7.12 µM in assay [2].

Usually Ki stands for a measure of affinity in units of concentration, obtained from inhibition or displacement. Higher therefore signals lower affinity.

These data come from BindingDB's records for doi:10.1074/jbc.M004512200 (Schering-Plough Research Institute, 2000).
